Reference: the supplement of paper PMC10307832

Key:
Assay in all cases: relative viability (nuclei count vs DMSO), 5 days (fraction); higher = more cells survive
NCI-H441 = test system: NCI-H441
Procedure, shortened: (§1)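 Five library-drug doses in √10 steps were combined with a fixed anchor-drug dose, or a single drug was given alone, by pin tool to lung cancer cell lines in 1536-well plates the day after seeding. Nuclei were stained and counted after 5 days. Relative viability is the nuclei count in treated wells over that in vehicle wells, taken as the median of duplicate plates.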

NCI-H2085 = test system: NCI-H2085
Procedure, shortened: as §1

SW 900 = test system: SW 900
Procedure, shortened: as §1

H3255 = test system: H3255
Procedure, shortened: as §1

NCI-H2170 = test system: NCI-H2170
Procedure, shortened: as §1

LOU-NH91 = test system: LOU-NH91
Procedure, shortened: as §1

PC-14 = test system: PC-14
Procedure, shortened: as §1

NCI-H1993 = test system: NCI-H1993
Procedure, shortened: as §1

201T = test system: 201T
Procedure, shortened: as §1

NCI-H1793 = test system: NCI-H1793
Procedure, shortened: as §1

COR-L23 = test system: COR-L23
Procedure, shortened: as §1

NCI-H3122 = test system: NCI-H3122
Procedure, shortened: as §1

HCC-44 = test system: HCC-44
Procedure, shortened: as §1

NCI-H2405 = test system: NCI-H2405
Procedure, shortened: as §1

NCI-H647 = test system: NCI-H647
Procedure, shortened: as §1

NCI-H520 = test system: NCI-H520
Procedure, shortened: as §1

NCI-H1734 = test system: NCI-H1734
Procedure, shortened: as §1

EPLC-272H = test system: EPLC-272H
Procedure, shortened: as §1

NCI-H2347 = test system: NCI-H2347
Procedure, shortened: as §1

NCI-H1650 = test system: NCI-H1650
Procedure, shortened: as §1

NCI-H2023 = test system: NCI-H2023
Procedure, shortened: as §1

RERF-LC-KJ = test system: RERF-LC-KJ
Procedure, shortened: as §1

CC1(C)CCC(c2ccc(Cl)cc2)=C(CN2CCN(c3ccc(C(=O)NS(=O)(=O)c4ccc(N[C@H](CCN5CCOCC5)CSc5ccccc5)c(S(=O)(=O)C(F)(F)F)c4)cc3)CC2)C1 [Navitoclax] + CC(=O)c1c(C)c2cnc(Nc3ccc(N4CCNCC4)cn3)nc2n(C2CCCC2)c1=O [Palbociclib] (partner 0.5 µM)
relative viability (NCI-H441; first compound 0.005 µM): 0.225
relative viability (NCI-H441; first compound 0.01581 µM): 0.268
relative viability (NCI-H441; first compound 0.05 µM): 0.192
relative viability (NCI-H441; first compound 0.1581 µM): 0.216
relative viability (NCI-H441; first compound 0.5 µM): 0.284
relative viability (NCI-H2085; first compound 0.005 µM): 0.45
relative viability (NCI-H2085; first compound 0.01581 µM): 0.456
relative viability (NCI-H2085; first compound 0.05 µM): 0.379
relative viability (NCI-H2085; first compound 0.1581 µM): 0.482
relative viability (NCI-H2085; first compound 0.5 µM): 0.502
relative viability (SW 900; first compound 0.005 µM): 0.565
relative viability (SW 900; first compound 0.01581 µM): 0.651
relative viability (SW 900; first compound 0.1581 µM): 0.55
relative viability (SW 900; first compound 0.5 µM): 0.518
relative viability (H3255; first compound 0.005 µM): 0.304
relative viability (H3255; first compound 0.01581 µM): 0.329
relative viability (H3255; first compound 0.05 µM): 0.3
relative viability (H3255; first compound 0.1581 µM): 0.312
relative viability (H3255; first compound 0.5 µM): 0.316
relative viability (NCI-H2170; first compound 0.005 µM): 0.391
relative viability (NCI-H2170; first compound 0.01581 µM): 0.382
relative viability (NCI-H2170; first compound 0.05 µM): 0.409
relative viability (NCI-H2170; first compound 0.1581 µM): 0.394
relative viability (NCI-H2170; first compound 0.5 µM): 0.377
relative viability (LOU-NH91; first compound 0.005 µM): 0.53
relative viability (LOU-NH91; first compound 0.01581 µM): 0.523
relative viability (LOU-NH91; first compound 0.05 µM): 0.441
relative viability (LOU-NH91; first compound 0.1581 µM): 0.477
relative viability (LOU-NH91; first compound 0.5 µM): 0.409
relative viability (PC-14; first compound 0.005 µM): 0.537
relative viability (PC-14; first compound 0.01581 µM): 0.466
relative viability (PC-14; first compound 0.05 µM): 0.607
relative viability (PC-14; first compound 0.1581 µM): 0.528
relative viability (PC-14; first compound 0.5 µM): 0.509
relative viability (NCI-H1993; first compound 0.005 µM): 0.7
relative viability (NCI-H1993; first compound 0.01581 µM): 0.744
relative viability (NCI-H1993; first compound 0.05 µM): 0.593
relative viability (NCI-H1993; first compound 0.1581 µM): 0.749
relative viability (NCI-H1993; first compound 0.5 µM): 0.653
relative viability (201T; first compound 0.005 µM): 0.342
relative viability (201T; first compound 0.01581 µM): 0.347
relative viability (201T; first compound 0.05 µM): 0.362
relative viability (201T; first compound 0.1581 µM): 0.365
relative viability (201T; first compound 0.5 µM): 0.355
relative viability (NCI-H1793; first compound 0.005 µM): 0.312
relative viability (NCI-H1793; first compound 0.01581 µM): 0.281
relative viability (NCI-H1793; first compound 0.1581 µM): 0.336
relative viability (NCI-H1793; first compound 0.5 µM): 0.295
relative viability (COR-L23; first compound 0.005 µM): 0.36
relative viability (COR-L23; first compound 0.01581 µM): 0.309
relative viability (COR-L23; first compound 0.05 µM): 0.28
relative viability (COR-L23; first compound 0.1581 µM): 0.331
relative viability (COR-L23; first compound 0.5 µM): 0.278
relative viability (NCI-H3122; first compound 0.005 µM): 0.206
relative viability (NCI-H3122; first compound 0.01581 µM): 0.164
relative viability (NCI-H3122; first compound 0.05 µM): 0.225
relative viability (NCI-H3122; first compound 0.1581 µM): 0.177
relative viability (NCI-H3122; first compound 0.5 µM): 0.182
relative viability (HCC-44; first compound 0.005 µM): 0.968
relative viability (HCC-44; first compound 0.01581 µM): 0.919
relative viability (HCC-44; first compound 0.05 µM): 0.947
relative viability (HCC-44; first compound 0.1581 µM): 0.893
relative viability (HCC-44; first compound 0.5 µM): 0.956
relative viability (NCI-H2405; first compound 0.005 µM): 0.501
relative viability (NCI-H2405; first compound 0.01581 µM): 0.562
relative viability (NCI-H2405; first compound 0.05 µM): 0.562
relative viability (NCI-H2405; first compound 0.1581 µM): 0.511
relative viability (NCI-H2405; first compound 0.5 µM): 0.506
relative viability (NCI-H647; first compound 0.005 µM): 0.336
relative viability (NCI-H647; first compound 0.01581 µM): 0.359
relative viability (NCI-H647; first compound 0.05 µM): 0.24
relative viability (NCI-H647; first compound 0.1581 µM): 0.414
relative viability (NCI-H647; first compound 0.5 µM): 0.344
relative viability (NCI-H520; first compound 0.005 µM): 0.273
relative viability (NCI-H520; first compound 0.01581 µM): 0.25
relative viability (NCI-H520; first compound 0.05 µM): 0.18
relative viability (NCI-H520; first compound 0.1581 µM): 0.182
relative viability (NCI-H520; first compound 0.5 µM): 0.217
relative viability (NCI-H1734; first compound 0.005 µM): 0.339
relative viability (NCI-H1734; first compound 0.01581 µM): 0.374
relative viability (NCI-H1734; first compound 0.1581 µM): 0.296
relative viability (NCI-H1734; first compound 0.5 µM): 0.367
relative viability (EPLC-272H; first compound 0.005 µM): 0.325
relative viability (EPLC-272H; first compound 0.05 µM): 0.324
relative viability (EPLC-272H; first compound 0.1581 µM): 0.31
relative viability (EPLC-272H; first compound 0.5 µM): 0.297
relative viability (NCI-H2347; first compound 0.005 µM): 0.468
relative viability (NCI-H2347; first compound 0.01581 µM): 0.48
relative viability (NCI-H2347; first compound 0.05 µM): 0.396
relative viability (NCI-H2347; first compound 0.1581 µM): 0.439
relative viability (NCI-H2347; first compound 0.5 µM): 0.377
relative viability (NCI-H1650; first compound 0.005 µM): 0.385
relative viability (NCI-H1650; first compound 0.01581 µM): 0.456
relative viability (NCI-H1650; first compound 0.05 µM): 0.315
relative viability (NCI-H1650; first compound 0.1581 µM): 0.346
relative viability (NCI-H1650; first compound 0.5 µM): 0.316
relative viability (NCI-H2023; first compound 0.005 µM): 0.421
relative viability (NCI-H2023; first compound 0.01581 µM): 0.427
relative viability (NCI-H2023; first compound 0.05 µM): 0.384
relative viability (NCI-H2023; first compound 0.1581 µM): 0.401
relative viability (NCI-H2023; first compound 0.5 µM): 0.439
relative viability (RERF-LC-KJ; first compound 0.005 µM): 1.06
relative viability (RERF-LC-KJ; first compound 0.01581 µM): 1.01
relative viability (RERF-LC-KJ; first compound 0.05 µM): 1.14
relative viability (RERF-LC-KJ; first compound 0.1581 µM): 1.07
relative viability (RERF-LC-KJ; first compound 0.5 µM): 1.01
